# Laboratory results published in ChEMBL document CHEMBL5050859, “Gpx4 inhibitors, pharmaceutical compositions thereof, and their use for treating gpx4-mediated diseases” (2021).
# Tested on: Huh-7
# Experiment: Antiproliferative activity against human Huh-7 cells after 24 hrs by Cell Titer Glo assay
# Type: functional, cell-based
# Settings: Huh-7, 24 h
row,SMILES,EC50
1,COc1ccc(N(C(=O)CCl)C(C(=O)NCc2ccccc2)c2cccs2)cc1Cl (configuration not stated),500 nM
2,C#CC(=O)N(c1ccc(OC)cc1OC)C(C(=O)NCC(=O)OCC)c1cccs1 (configuration not stated),500 nM
3,C#CC(=O)N(C1CCC1)C1(C(=O)NCc2ccccc2)CCCC(C(=O)OC)C1 (configuration not stated),500 nM
4,Nc1cccc(N(C(=O)CCl)C(C(=O)NCCc2ccccc2)c2cccs2)c1 (configuration not stated),2000 nM
5,C=CC(=O)N(Cc1cccc(O)c1)C1(C(=O)NCc2ccccc2)CCOCC1,> 10000 nM
6,C#CC(=O)N(c1ccc2c(cnn2C)c1)C1(C(=O)NCc2ccccc2)CCC(=O)CC1,≤ 100 nM
7,C#CC(=O)N(c1cccc2cnn(C)c12)C(C(=O)NCc1ccccc1)c1ccccc1 (configuration not stated),≤ 100 nM
8,C#CC(=O)N(c1ccc2[nH]ncc2c1)C1(C(=O)NCc2ccccc2)CCOCC1,100 nM
9,COc1ccc(N(C(=O)CCl)C2(C(=O)NCc3ccccc3)CCOCC2)cc1Cl,100 nM
10,C#CC(=O)N(c1ccc2c(cnn2C)c1)C1(C(=O)NCc2ccccc2)CCCC(C(=O)OC)C1 (configuration not stated),≤ 100 nM
11,C#CC(=O)N(CCc1ccccc1)C1(C(=O)NCc2ccccc2)CCCC(C(=O)O)C1 (configuration not stated),> 10000 nM
12,C#CC(=O)N(c1ccc2c(cnn2C)c1)C1(C(=O)NCc2ccccc2)CCCOC1 (configuration not stated),≤ 100 nM
13,O=C(NCCc1ccccc1)C(c1ccc([N+](=O)[O-])cc1)N(Cc1ccccc1)C(=O)CCl (configuration not stated),2000 nM
14,C#CC(=O)N(c1cccc(Cl)c1)C1(C(=O)NCC(=O)NCc2ccccc2O)CCOCC1,100 nM
15,C#CC(=O)N(c1ccc(OC)cc1OC)C1(C(=O)NCc2ccccc2)CCOCC1,≤ 100 nM
16,Cn1ncc2cc(N(C(=O)CO)C3(C(=O)NCc4ccccc4)CCOCC3)ccc21,> 10000 nM
17,C#CC(=O)N(c1cccc(Cl)c1)C1(C(=O)NCC(=O)Nc2ccccc2)CCOCC1,100 nM
18,C=C(F)C(=O)N(c1ccc(OC)c(Cl)c1)C(C(=O)NCc1ccccc1)c1cccc(N)c1 (configuration not stated),> 10000 nM
19,O=C(NCCc1ccccc1)C(c1ccc([N+](=O)[O-])cc1)N(C(=O)CCl)c1cccc(Cl)c1 (configuration not stated),100 nM
20,C#CC(=O)N(c1cccc(Cl)c1)C1(C(=O)NCC(=O)NCc2ccccc2Cl)CCOCC1,100 nM
21,O=C(CCl)N(c1cccc2nsnc12)C1(C(=O)NCc2ccccc2)CCOCC1,100 nM
22,C#CC(=O)N(c1cccc(Cl)c1)C1(C(=O)NCC(=O)N2CCCC(CO)C2)CCOCC1 (configuration not stated),2000 nM

row,SMILES,EC50
1,COc1cccc(N(C(=O)CCl)C(C(=O)NCCc2ccccc2)c2ccc([N+](=O)[O-])cc2)c1 (configuration not stated),100 nM
2,Nc1ccc(N(C(=O)CCl)C(C(=O)NCCc2ccccc2)c2cccs2)cc1 (configuration not stated),2000 nM
3,C#CC(=O)N(c1cccc(Cl)c1)C(C(=O)NCC1CCOCC1)c1ccccc1 (configuration not stated),≤ 100 nM
4,C=CC(=O)N(c1cccc(Cl)c1)C1(C(=O)NCc2ccccc2)CCOCC1,> 10000 nM
5,C#CC(=O)N(c1cccc(Cl)c1)C(C(=O)NCC1COC1)c1ccccc1 (configuration not stated),≤ 100 nM
6,COc1ccc(N(C(=O)CCl)C2(C(=O)NCCc3ccccc3)CCC(F)(F)CC2)cc1Cl,100 nM
7,COC(=O)c1cccc(N(C(=O)CCl)C(C(=O)NCCc2ccccc2)c2ccc([N+](=O)[O-])cc2)c1 (configuration not stated),100 nM
8,COc1ccc(N(C(=O)CCl)C(C(=O)NCCc2ccccc2)c2ccc(N)cc2)cc1Cl (configuration not stated),100 nM
9,C#CC(=O)N(c1cccc(Cl)c1)C1(C(=O)NCc2ccccc2)CCC(=O)CC1,≤ 100 nM
10,O=C(CCl)N(c1cccc2nsnc12)C1(C(=O)NCCc2ccccc2)CCOCC1,500 nM
11,C#CC(=O)N(c1cccc(Cl)c1)C1(C(=O)NCC(=O)NCc2ccccc2C#N)CCOCC1,100 nM
12,C=C(F)C(=O)N(c1ccc2c(cnn2C)c1)C1(C(=O)NCc2ccccc2)CCOCC1,> 10000 nM
13,Cn1ncc2cc(N(C(=O)C3CO3)C3(C(=O)NCc4ccccc4)CCOCC3)ccc21 (configuration not stated),> 10000 nM
14,C#CC(=O)N(c1cccc(Cl)c1)C1(C(=O)NCC(=O)OCC)CCOCC1,500 nM
15,CC(=O)Nc1cccc(N(C(=O)CCl)C(C(=O)NCCc2ccccc2)c2ccc([N+](=O)[O-])cc2)c1 (configuration not stated),2000 nM
16,C#CC(=O)N(c1ccn2cnnc2c1)C1(C(=O)NCc2ccccc2)CCOCC1,500 nM
17,CC(C)(C)NC(=O)C(c1ccc([N+](=O)[O-])cc1)N(C(=O)CCl)c1ccc(Cl)cc1 (configuration not stated),2000 nM
18,C#CC(=O)N(c1cccc(Cl)c1)C1(C(=O)NCc2ccccc2)CCCC(C(=O)OC)C1 (configuration not stated),≤ 100 nM
19,CN(C)C/C=C/C(=O)N(c1ccc2c(cnn2C)c1)C1(C(=O)NCc2ccccc2)CCOCC1,> 10000 nM
20,O=C(NCCc1ccccc1)C(c1ccc([N+](=O)[O-])cc1)N(C(=O)CCl)c1cccc(O)c1 (configuration not stated),2000 nM
21,CC(Cl)C(=O)N(c1ccc2c(cnn2C)c1)C1(C(=O)NCc2ccccc2)CCOCC1 (configuration not stated),> 10000 nM
22,O=C(CCl)N(c1ccc2c(c1)OCO2)C1(C(=O)NCc2ccccc2)CCOCC1,2000 nM

row,SMILES,EC50
1,COc1ccc(N(C(=O)CCl)C(C(=O)NCCc2ccccc2)c2cccc(N)c2)cc1Cl (configuration not stated),100 nM
2,COc1ccc(N(C(=O)CCl)C(C(=O)NCCc2ccccc2)c2ccc(NC(=O)CO)cc2)cc1Cl (configuration not stated),500 nM
3,C#CC(=O)N(Cc1cccc(O)c1)C1(C(=O)NCc2ccccc2)CCCC(C(=O)OC)C1 (configuration not stated),100 nM
4,C#CC(=O)N(c1cccc2nsnc12)C1(C(=O)NCc2ccccc2)CCOCC1,≤ 100 nM
5,CC(C)N(C(=O)CCl)C(C(=O)NCCc1ccccc1)c1cccs1 (configuration not stated),> 10000 nM
6,C#CC(=O)N(c1cccc(Cl)c1)C1(C(=O)NCS(=O)(=O)c2ccc(C)cc2)CCOCC1,500 nM
7,Cn1ncc2cc(N(C(=O)C(F)F)C3(C(=O)NCc4ccccc4)CCOCC3)ccc21,> 10000 nM
8,C#CC(=O)N(c1cccc(Cl)c1)C(C(=O)NCC1CC1)c1ccccc1 (configuration not stated),≤ 100 nM
9,C#CC(=O)N(CCc1ccccc1)C1(C(=O)NCc2ccccc2)CCCC(C(=O)OC)C1 (configuration not stated),100 nM
10,C#CC(=O)N(c1cccc(Cl)c1)C1(C(=O)NCC(=O)NCc2ccccc2)CCOCC1,100 nM
11,O=C(NCCc1ccccc1)C(c1ccc([N+](=O)[O-])cc1)N(Cc1cccs1)C(=O)CCl (configuration not stated),2000 nM
12,C=CC(=O)N(c1ccc2c(cnn2C)c1)C1(C(=O)NCc2ccccc2)CCOCC1,> 10000 nM
13,C#CC(=O)N(c1cccc(Cl)c1)C1(C(=O)NCC(=O)NCCO)CCOCC1,2000 nM
14,C=CC(=O)N(C1CCC1)C1(C(=O)NCc2ccccc2)CCOCC1,> 10000 nM
15,C#CC(=O)N(c1ccc2c(cnn2C)c1)C1(C(=O)NCc2ccccc2)CCCC(=O)C1 (configuration not stated),100 nM
16,COc1ccc(N(C(=O)CCl)C2(C(=O)NCc3ccccc3)CCC(F)(F)CC2)cc1Cl,≤ 100 nM
17,C[Si](C)(C)C#CC(=O)N(c1cccc(Cl)c1)C1(C(=O)NCc2cccc(Cl)c2)CCOCC1,≤ 100 nM
18,C=CC(=O)N(CCc1ccccc1)C1(C(=O)NCc2ccccc2)CCOCC1,> 10000 nM
19,C#CC(=O)N(c1cccc(Cl)c1)C1(C(=O)NCc2ccccc2)CCCOC1 (configuration not stated),≤ 100 nM
20,C#CC(=O)N(c1cccc(Cl)c1)C(C(=O)NCc1ccccc1C#N)c1ccccc1 (configuration not stated),≤ 100 nM
21,C#CC(=O)N(c1cccc(Cl)c1)C1(C(=O)NCc2ccccc2)CCCC(=O)C1 (configuration not stated),≤ 100 nM
22,C#CC(=O)N(c1ccc2c(ccn2C)c1)C1(C(=O)NCc2ccccc2)CCOCC1,≤ 100 nM

row,SMILES,EC50
1,Cn1ncc2cc(N(C(=O)CCl)C3(C(=O)NCCc4ccccc4)CCOCC3)ccc21,500 nM
2,COc1ccc(N(C(=O)CCl)C2(C(=O)NCCc3ccccc3)CCOCC2)cc1Cl,≤ 100 nM
3,COc1ccc(N(C(=O)CCl)C(C(=O)NC(C)(C)C)c2cccs2)cc1Cl (configuration not stated),500 nM
4,CC(=O)N(c1ccc2c(cnn2C)c1)C1(C(=O)NCc2ccccc2)CCCOC1 (configuration not stated),> 10000 nM
5,C#CC(=O)N(c1ccc2[nH]ccc2c1)C1(C(=O)NCc2ccccc2)CCOCC1,2000 nM
6,C#CC(=O)N(c1ccc2c(c1)OCO2)C1(C(=O)NCc2ccccc2)CCOCC1,100 nM
7,C#CC(=O)N(c1ccc2c(cnn2C)c1)C1(C(=O)NCc2ccccc2)CCOCC1,≤ 100 nM
8,C#CC(=O)N(c1cccc(Cl)c1)C1(C(=O)NCc2ccccc2)CCCC(O)C1 (configuration not stated),2000 nM
9,C#CC(=O)N(c1ccc2scnc2c1)C1(C(=O)NCc2ccccc2)CCOCC1,100 nM
10,C#CC(=O)N(c1cccc(Cl)c1)C1(C(=O)NCc2cccc(Cl)c2)CCOCC1,≤ 100 nM
11,Nc1ccc(C(C(=O)NCCc2ccccc2)N(C(=O)CCl)c2cccc(Cl)c2)cc1 (configuration not stated),500 nM
12,C#CC(=O)N(c1cccc(Cl)c1)C1(C(=O)NCC(=O)N2CCCC(O)C2)CCOCC1 (configuration not stated),2000 nM
13,Cn1ncc2cc(N(C(=O)CCl)C3(C(=O)NCc4ccccc4)CCOCC3)ccc21,500 nM
14,C#CC(=O)N(c1ccc2ncn(C)c2c1)C1(C(=O)NCc2ccccc2)CCOCC1,500 nM
15,COc1ccc(N(C(=O)CCl)C(C)C(=O)NCCc2ccccc2)cc1Cl (configuration not stated),500 nM
16,C#CC(=O)N(c1ccc2c(c1)ncn2C)C1(C(=O)NCc2ccccc2)CCOCC1,500 nM
17,C#CC(=O)N(c1cccc(Cl)c1)C1(C(=O)NCC(=O)N2CCCC(C(=O)OC)C2)CCOCC1 (configuration not stated),100 nM
18,C=CC(=O)N(c1ccc(OC)c(Cl)c1)C(C(=O)NCc1ccccc1)c1cccc(N)c1 (configuration not stated),> 10000 nM
19,C#CC(=O)N(c1cccc(Cl)c1)C1(C(=O)NCC(=O)O)CCOCC1,> 10000 nM
20,C#CC(=O)N(Cc1cccc(O)c1)C1(C(=O)NCc2ccccc2)CCCC(C(=O)O)C1 (configuration not stated),> 10000 nM
21,C#CC(=O)N(C1CCC(=O)N(C)C1)C(C(=O)NCc1ccccc1)c1ccccc1 (configuration not stated),2000 nM
